Measured values taken from ChEMBL document CHEMBL1201862, “PubChem BioAssay data set” (2004).
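A five-concentration, 48-hour dose response in 96-well plates underlies each endpoint, interpolated linearly between surrounding concentrations. GI50: concentration for 50% inhibition of growth.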 The source made the active and inactive calls. Cut-off read from the data, not from the text of the source: active = GI50 up to about 1.1 µM and inactive = higher.

Legend:
Experiment in all cases: inhibition of tumour cell growth, NCI panel, 48 h
786-0 = system: 786-0
A498 = system: A498
A549 = system: A549
ACHN = system: ACHN
CAKI-1 = system: CAKI-1
CCRF-CEM = system: CCRF-CEM
COLO 205 = system: COLO 205
DLD-1 = system: DLD-1
DMS-114 = system: DMS-114
DMS-273 = system: DMS-273
EKVX = system: EKVX
HCC 2998 = system: HCC 2998
HCT-116 = system: HCT-116
HCT-15 = system: HCT-15
HL-60 = system: HL-60
HOP-18 = system: HOP-18
HOP-62 = system: HOP-62
HOP-92 = system: HOP-92
HT-29 = system: HT-29
IGROV-1 = system: IGROV-1
K562 = system: K562
KM-20L2 = system: KM-20L2
KM12 = system: KM12
LOX IMVI = system: LOX IMVI
LXFL 529 = system: LXFL 529
M14 = system: M14
M19-MEL = system: M19-MEL
MOLT-4 = system: MOLT-4
Malme-3M = system: Malme-3M
NCI-H226 = system: NCI-H226
NCI-H23 = system: NCI-H23
NCI-H460 = system: NCI-H460
NCI-H522 = system: NCI-H522
OVCAR-3 = system: OVCAR-3
OVCAR-4 = system: OVCAR-4
OVCAR-5 = system: OVCAR-5
OVCAR-8 = system: OVCAR-8
RPMI-8226 = system: RPMI-8226
RXF 393 = system: RXF 393
RXF 631 = system: RXF 631
SF-268 = system: SF-268
SF-539 = system: SF-539
SK-MEL-28 = system: SK-MEL-28
SK-MEL-2 = system: SK-MEL-2
SK-MEL-5 = system: SK-MEL-5
SK-OV-3 = system: SK-OV-3
SN12C = system: SN12C
SNB-19 = system: SNB-19
SNB-75 = system: SNB-75
SNB-78 = system: SNB-78
SW-620 = system: SW-620
TK-10 = system: TK-10
U-251 = system: U-251
UACC-257 = system: UACC-257
UACC-62 = system: UACC-62
UO-31 = system: UO-31
XF498 = system: XF498
SF-295 = system: SF-295
SR = system: SR

SMILES: CCOP(=O)(OCC)C(C(=O)OC)C(=O)C(=O)Nc1c(C)cc(Br)cc1C (stereo not given)
- GI50 (786-0): > 100 µM (inactive)
- GI50 (A498): > 100 µM (inactive)
- GI50 (A549): > 100 µM (inactive)
- GI50 (ACHN): > 100 µM (inactive)
- GI50 (CAKI-1): > 100 µM (inactive)
- GI50 (CCRF-CEM): > 100 µM (inactive)
- GI50 (COLO 205): > 100 µM (inactive)
- GI50 (DLD-1): > 100 µM (inactive)
- GI50 (DMS-114): > 100 µM (inactive)
- GI50 (DMS-273): > 100 µM (inactive)
- GI50 (EKVX): > 100 µM (inactive)
- GI50 (HCC 2998): > 100 µM (inactive)
- GI50 (HCT-116): > 100 µM (inactive)
- GI50 (HCT-15): > 100 µM
- GI50 (HL-60): > 100 µM (inactive)
- GI50 (HOP-18): 49.7 µM (inactive)
- GI50 (HOP-62): > 100 µM (inactive)
- GI50 (HOP-92): > 100 µM (inactive)
- GI50 (HT-29): > 100 µM (inactive)
- GI50 (IGROV-1): > 100 µM (inactive)
- GI50 (K562): > 100 µM (inactive)
- GI50 (KM-20L2): > 100 µM (inactive)
- GI50 (KM12): > 100 µM (inactive)
- GI50 (LOX IMVI): > 100 µM (inactive)
- GI50 (LXFL 529): > 100 µM (inactive)
- GI50 (M14): > 100 µM (inactive)
- GI50 (M19-MEL): > 100 µM (inactive)
- GI50 (MOLT-4): > 100 µM (inactive)
- GI50 (Malme-3M): > 100 µM (inactive)
- GI50 (NCI-H226): > 100 µM (inactive)
- GI50 (NCI-H23): > 100 µM (inactive)
- GI50 (NCI-H460): > 100 µM (inactive)
- GI50 (NCI-H522): > 100 µM (inactive)
- GI50 (OVCAR-3): > 100 µM (inactive)
- GI50 (OVCAR-4): > 100 µM (inactive)
- GI50 (OVCAR-5): > 100 µM (inactive)
- GI50 (OVCAR-8): > 100 µM (inactive)
- GI50 (RPMI-8226): > 100 µM (inactive)
- GI50 (RXF 393): > 100 µM (inactive)
- GI50 (RXF 631): > 100 µM (inactive)
- GI50 (SF-268): > 100 µM (inactive)
- GI50 (SF-539): > 100 µM (inactive)
- GI50 (SK-MEL-28): > 100 µM (inactive)
- GI50 (SK-MEL-2): > 100 µM (inactive)
- GI50 (SK-MEL-5): > 100 µM (inactive)
- GI50 (SK-OV-3): > 100 µM (inactive)
- GI50 (SN12C): > 100 µM (inactive)
- GI50 (SNB-19): > 100 µM (inactive)
- GI50 (SNB-75): > 100 µM (inactive)
- GI50 (SNB-78): > 100 µM (inactive)
- GI50 (SW-620): > 100 µM (inactive)
- GI50 (TK-10): > 100 µM (inactive)
- GI50 (U-251): > 100 µM (inactive)
- GI50 (UACC-257): > 100 µM (inactive)
- GI50 (UACC-62): > 100 µM (inactive)
- GI50 (UO-31): > 100 µM (inactive)
- GI50 (XF498): > 100 µM (inactive)

SMILES: NNC(=O)/C(NC(=O)c1ccccc1)=C(\N)c1cccc([N+](=O)[O-])c1
- GI50 (786-0): > 100 µM (inactive)
- GI50 (A498): > 100 µM (inactive)
- GI50 (A549): > 100 µM (inactive)
- GI50 (ACHN): > 100 µM (inactive)
- GI50 (CAKI-1): > 100 µM (inactive)
- GI50 (CCRF-CEM): > 100 µM (inactive)
- GI50 (COLO 205): > 100 µM (inactive)
- GI50 (DLD-1): > 100 µM (inactive)
- GI50 (DMS-114): > 100 µM (inactive)
- GI50 (DMS-273): > 100 µM (inactive)
- GI50 (EKVX): > 100 µM (inactive)
- GI50 (HCC 2998): > 100 µM (inactive)
- GI50 (HCT-116): > 100 µM (inactive)
- GI50 (HCT-15): > 100 µM
- GI50 (HL-60): > 100 µM (inactive)
- GI50 (HOP-18): > 100 µM (inactive)
- GI50 (HOP-62): > 100 µM (inactive)
- GI50 (HOP-92): > 100 µM (inactive)
- GI50 (HT-29): > 100 µM (inactive)
- GI50 (IGROV-1): > 100 µM (inactive)
- GI50 (K562): > 100 µM (inactive)
- GI50 (KM12): > 100 µM (inactive)
- GI50 (LOX IMVI): > 100 µM (inactive)
- GI50 (LXFL 529): > 100 µM (inactive)
- GI50 (M14): > 100 µM (inactive)
- GI50 (M19-MEL): > 100 µM (inactive)
- GI50 (MOLT-4): 94.2 µM (inactive)
- GI50 (Malme-3M): > 100 µM (inactive)
- GI50 (NCI-H226): > 100 µM (inactive)
- GI50 (NCI-H23): > 100 µM (inactive)
- GI50 (NCI-H460): > 100 µM (inactive)
- GI50 (NCI-H522): > 100 µM (inactive)
- GI50 (OVCAR-3): > 100 µM (inactive)
- GI50 (OVCAR-4): > 100 µM (inactive)
- GI50 (OVCAR-5): > 100 µM (inactive)
- GI50 (OVCAR-8): > 100 µM (inactive)
- GI50 (RPMI-8226): > 100 µM (inactive)
- GI50 (RXF 393): > 100 µM (inactive)
- GI50 (RXF 631): > 100 µM (inactive)
- GI50 (SF-268): > 100 µM (inactive)
- GI50 (SF-295): > 100 µM (inactive)
- GI50 (SF-539): > 100 µM (inactive)
- GI50 (SK-MEL-28): > 100 µM (inactive)
- GI50 (SK-MEL-2): > 100 µM (inactive)
- GI50 (SK-MEL-5): > 100 µM (inactive)
- GI50 (SK-OV-3): > 100 µM (inactive)
- GI50 (SN12C): > 100 µM (inactive)
- GI50 (SNB-19): > 100 µM (inactive)
- GI50 (SNB-75): > 100 µM (inactive)
- GI50 (SNB-78): > 100 µM (inactive)
- GI50 (SR): > 100 µM (inactive)
- GI50 (SW-620): > 100 µM (inactive)
- GI50 (TK-10): > 100 µM (inactive)
- GI50 (U-251): > 100 µM (inactive)
- GI50 (UACC-257): > 100 µM (inactive)
- GI50 (UACC-62): > 100 µM (inactive)
- GI50 (UO-31): > 100 µM (inactive)
- GI50 (XF498): > 100 µM (inactive)
